We go through three compounds from article PMC9136259 (Food Chemistry: X, 2022).

The target in test [1] is T1, xanthine oxidase (XOD, from bovine milk) (Bos taurus, UniProt P80457). In words: intrinsic fluorescence quenching. The class given is binding. The note with it: 0.2 M PBS pH 7.5; 298, 304 and 310 K; static quenching.
The target of test [2] is T1, xanthine oxidase (XOD, from bovine milk). Kind of test: xanthine oxidation, absorbance at […] nm, microplate. The class given is biochemical.

Molecules are shown by their SMILES.

T1 sequence (P80457 2-1332): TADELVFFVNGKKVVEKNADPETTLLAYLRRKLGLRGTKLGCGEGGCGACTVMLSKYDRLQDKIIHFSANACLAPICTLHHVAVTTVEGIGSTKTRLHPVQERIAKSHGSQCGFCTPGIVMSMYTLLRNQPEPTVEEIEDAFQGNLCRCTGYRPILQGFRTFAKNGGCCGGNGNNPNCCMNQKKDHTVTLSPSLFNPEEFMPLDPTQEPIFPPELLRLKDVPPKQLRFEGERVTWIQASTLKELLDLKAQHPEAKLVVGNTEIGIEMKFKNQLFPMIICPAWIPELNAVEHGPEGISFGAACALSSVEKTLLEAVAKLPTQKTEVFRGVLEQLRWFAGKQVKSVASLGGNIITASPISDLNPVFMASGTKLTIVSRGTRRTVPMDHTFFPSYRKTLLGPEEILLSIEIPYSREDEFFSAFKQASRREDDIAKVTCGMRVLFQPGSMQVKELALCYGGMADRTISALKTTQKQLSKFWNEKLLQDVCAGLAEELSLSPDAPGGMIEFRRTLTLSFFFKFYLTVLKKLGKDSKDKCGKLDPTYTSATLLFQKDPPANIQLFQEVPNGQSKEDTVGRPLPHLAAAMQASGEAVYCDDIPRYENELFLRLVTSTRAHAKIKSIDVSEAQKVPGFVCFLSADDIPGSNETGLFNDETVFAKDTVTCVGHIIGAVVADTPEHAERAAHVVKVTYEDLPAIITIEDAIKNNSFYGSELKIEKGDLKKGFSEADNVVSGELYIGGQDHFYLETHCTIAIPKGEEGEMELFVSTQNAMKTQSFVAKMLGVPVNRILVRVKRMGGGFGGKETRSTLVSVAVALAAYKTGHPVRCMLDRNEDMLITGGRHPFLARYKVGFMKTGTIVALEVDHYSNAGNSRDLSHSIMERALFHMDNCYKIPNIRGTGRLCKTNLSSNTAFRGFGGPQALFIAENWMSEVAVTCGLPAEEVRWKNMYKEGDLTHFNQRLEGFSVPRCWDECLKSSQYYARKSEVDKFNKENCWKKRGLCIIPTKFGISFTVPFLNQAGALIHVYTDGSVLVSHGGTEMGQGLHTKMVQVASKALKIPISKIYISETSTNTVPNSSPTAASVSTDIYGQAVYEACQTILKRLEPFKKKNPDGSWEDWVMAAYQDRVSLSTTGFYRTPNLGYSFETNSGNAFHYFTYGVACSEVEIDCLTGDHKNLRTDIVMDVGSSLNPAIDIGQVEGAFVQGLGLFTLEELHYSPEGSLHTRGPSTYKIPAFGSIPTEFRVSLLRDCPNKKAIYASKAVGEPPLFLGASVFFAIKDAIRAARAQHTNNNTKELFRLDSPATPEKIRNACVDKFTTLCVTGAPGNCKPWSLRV

Consider `O=Cc1ccc(O)cc1` [4-Hydroxybenzaldehyde], for which, in test [1], the “intrinsic fluorescence quenching (Stern-Volmer), excitation 280 nm” value (shortened to “intrinsic fluorescence quenching”) was “fluorescence quenching mechanism of DHAP, 4-HPEA and HBA for XOD were a single type”. Besides, the IC50 in test [2] amounted to 0.00267 ± 0.0009 mM.
Turning to `OCCc1ccc(O)cc1` [4-Hydroxyphenethyl alcohol], in test [1], the “intrinsic fluorescence quenching” value was “fluorescence quenching mechanism of DHAP, 4-HPEA and HBA for XOD were a single type”. Besides, in test [2], the IC50 is 24.5 ± 0.8 mM.
In the case of `CC(=O)c1c(O)cccc1O` [2,6-Dihydroxyacetophenone], in test [1], the “intrinsic fluorescence quenching” value is “fluorescence quenching mechanism of DHAP, 4-HPEA and HBA for XOD were a single type”. The compound further displayed an IC50 in test [2] of 1.24 ± 0.02 mM.

In general, IC50 refers to the concentration that inhibits the measured activity by half.
